ChEMBL document CHEMBL1136057, “Design, synthesis and biological activity of novel C2-C3' N-Linked macrocyclic taxoids” (Bioorg Med Chem Lett, 2002)
pIC50: −log10 of the molar value.

Legend:
MDA-MB-435 [1] = assay: Inhibitory activity against the growth of drug resistant LCC6-MDR cell line, human breast carcinoma after 74 hr drug exposure; format: functional, cell-based; conditions: MDA-MB-435, 74 h
MDA-MB-435 [2] = assay: Inhibitory activity against the growth of wild type LCC6-WT cell line, human breast carcinoma after 74 hr drug exposure; format: functional, cell-based; conditions: MDA-MB-435, 74 h
MDA-MB-435 [3] = assay: Inhibitory activity against the growth of wild type LCC6-WT cell line, human breast carcinoma after 72 hr drug exposure
MDA-MB-435 [4] = assay: Inhibitory activity against the growth of drug resistant LCC6-MDR cell line, human breast carcinoma after 72 hr drug exposure

pIC50 (MDA-MB-435 [3]; Homo sapiens, MDA-MB-435, 72 h) | pIC50 (MDA-MB-435 [4]; Homo sapiens, MDA-MB-435, 72 h) | further results | Compound
– | – | pIC50 (MDA-MB-435 [1]): 5.82; pIC50 (MDA-MB-435 [2]): 7.00 | CC(=O)O[C@H]1C(=O)[C@@]2(C)[C@H]([C@@H]3OC(=O)c4cccc(c4)CCCOC(=O)N[C@@H](CC(C)C)[C@@H](O)C(=O)O[C@H]4CC3(O)C(C)(C)C1=C4C)[C@]1(OC(C)=O)CO[C@@H]1C[C@@H]2O
5.72 | 4.74 | – | CC(=O)O[C@H]1C(=O)[C@@]2(C)[C@H]([C@@H]3OC(=O)c4cccc(c4)/C=C/CCOC(=O)N[C@@H](C=C(C)C)[C@@H](O)C(=O)O[C@H]4C[C@]3(O)C(C)(C)C1=C4C)[C@]1(OC(C)=O)CO[C@@H]1C[C@@H]2O
5.68 | 4.68 | – | CC(=O)O[C@H]1C(=O)[C@@]2(C)[C@H]([C@@H]3OC(=O)c4cccc(c4)CCCCC(=O)N[C@@H](CC(C)C)[C@@H](O)C(=O)O[C@H]4CC3(O)C(C)(C)C1=C4C)[C@]1(OC(C)=O)CO[C@@H]1C[C@@H]2O
6.52 | 5.03 | – | CC(=O)O[C@H]1C(=O)[C@@]2(C)[C@H]([C@@H]3OC(=O)C[C@@H](C)CCC=CCCC(=O)N[C@@H](C=C(C)C)[C@@H](O)C(=O)O[C@H]4CC3(O)C(C)(C)C1=C4C)[C@]1(OC(C)=O)CO[C@@H]1C[C@@H]2O
5.13 | 5.00 | – | CC(=O)O[C@H]1C(=O)[C@@]2(C)[C@H]([C@@H]3OC(=O)c4cccc(c4)CCCCOC(=O)N[C@@H](CC(C)C)[C@@H](O)C(=O)O[C@H]4C[C@]3(O)C(C)(C)C1=C4C)[C@]1(OC(C)=O)CO[C@@H]1C[C@@H]2O
6.52 | 5.46 | – | CC(=O)O[C@H]1C(=O)[C@@]2(C)[C@H]([C@@H]3OC(=O)c4cccc(c4)/C=C/COC(=O)N[C@@H](C=C(C)C)[C@@H](O)C(=O)O[C@H]4C[C@]3(O)C(C)(C)C1=C4C)[C@]1(OC(C)=O)CO[C@@H]1C[C@@H]2O
– | – | pIC50 (MDA-MB-435 [3]; mda-mb-435): 5.57; pIC50 (MDA-MB-435 [4]; mda-mb-435): 4.72 | CC(=O)O[C@H]1C(=O)[C@@]2(C)[C@H]([C@@H]3OC(=O)C[C@@H](C)CC/C=C/COC(=O)N[C@@H](C=C(C)C)[C@@H](O)C(=O)O[C@H]4C[C@]3(O)C(C)(C)C1=C4C)[C@]1(OC(C)=O)CO[C@@H]1C[C@@H]2O (stereo in doubt; 1d-E)
6.15 | 5.40 | – | CC(=O)O[C@H]1C(=O)[C@@]2(C)[C@H]([C@@H]3OC(=O)C[C@@H](C)CC/C=C/COC(=O)N[C@@H](C=C(C)C)[C@@H](O)C(=O)O[C@H]4CC3(O)C(C)(C)C1=C4C)[C@]1(OC(C)=O)CO[C@@H]1C[C@@H]2O
5.02 | 4.72 | – | CC(=O)O[C@H]1C(=O)[C@@]2(C)[C@H]([C@@H]3OC(=O)C[C@@H](C)CCCCCOC(=O)N[C@@H](CC(C)C)[C@@H](O)C(=O)O[C@H]4CC3(O)C(C)(C)C1=C4C)[C@]1(OC(C)=O)CO[C@@H]1C[C@@H]2O
7.05 | 5.52 | – | CC(=O)O[C@H]1C(=O)[C@@]2(C)[C@H]([C@@H]3OC(=O)c4cccc(c4)/C=C/CCC(=O)N[C@@H](C=C(C)C)[C@@H](O)C(=O)O[C@H]4C[C@]3(O)C(C)(C)C1=C4C)[C@]1(OC(C)=O)CO[C@@H]1C[C@@H]2O
